{"source": "patent US10738093B2", "about": "“Discovery of cationic nonribosomal peptides as Gram-negative antibiotics through global genome mining” (The Hong Kong University of Science and Technology, priority 2018, dated 2020)", "key": {"[1]": {"tested_on": "Saccharomyces cerevisiae VL-48", "experiment": "MIC, Saccharomyces cerevisiae", "assay_type": "cell-based", "description": "Minimum inhibitory concentration (MIC) was determined by broth microdilution according to CLSI guidelines. The test medium for most species was Mueller-Hinton broth (MHB). Bacteria were grown overnight to early stationary phase and adjusted in MHB to 5.0×10^5 colony-forming units per mL (c.f.u./mL) in the wells of 96-well microtiter plates, mixed with varying concentrations of test compounds and incubated at 37° C. for 24 h. […] MHBs containing 10% fetal bovine serum (Gibco), 21 mM MgCl, or 1.0 mg/ml LPS (lipopolysaccharides from Escherichia coli O55:B5, Sigma-Aldrich) were used to test their inhibitory effects."}, "E. coli Top10": {"tested_on": "E. coli Top10", "experiment": "Time-kill assay", "assay_type": "cell-based, Escherichia coli", "description": "An overnight culture of E. coli Top10 or Pseudomonas aeruginosa PAO1 cells was diluted 1:10,000 in MHB and incubated at 37° C. with agitation at 180 rpm for 2 h (early exponential). The bacteria were then challenged with antibiotics at 10×MIC, brevicidine (20 μg/ml), laterocidine (20 μg/ml) or polymyxin B (10 μg/ml) at room temperature without shaking. An untreated sample of cells was used as a negative control. At intervals, 10 μL aliquots were removed, centrifuged at 10,000 g for 1 min and resuspended in 1.0 mL of sterile PBS. Tenfold-serially-diluted suspensions were plated on MHB agar plates and incubated at 37° C. overnight. Colonies were counted and the number of c.fu. per mL was calculated. For analysis of lysis, 300 μL of culture (OD600=1.0) were treated with 10×MIC of antibiotics for 24 h. Experiments were performed in triplicate."}, "[2]": {"tested_on": "Escherichia coli ATCC 25922", "experiment": "Resistance acquisition during serial passaging", "assay_type": "cell-based", "settings": "serial passaging at subinhibitory concentrations over 30 days", "description": "Escherichia coli ATCC 25922 was inoculated into MHB overnight at 37° C. with continuous shaking. Cells were diluted 10,000 times in MHB to about 1×10^6 c.f.u./mL. […] Plates with bacteria were incubated at 37° C. without shaking. […] This process was repeated for 30 d, and the final MIC was confirmed by the same antibacterial assay described above. The experiment was performed in quadruplicate, and on each day, the sample that developed the highest resistance was measured to plot the curve."}, "E. coli ATCC 25922": {"tested_on": "E. coli ATCC 25922", "experiment": "Atomic force microscopy of treated E. coli", "assay_type": "cell-based, Escherichia coli", "settings": "E. coli ATCC25922, 10×MIC", "description": "The samples were then centrifuged at 8000 g for 10 min at 4° C., and the pellet was washed twice in 100 lpL of apyrogenic water. The bacteria resuspended in 50 μL of apyrogenic water were applied to mica disks and dried overnight at 28° C. before imaging. Atomic force micrographs were recorded on a Veeco Mulitmode AFM with NanoScope III controller operating in contact mode. The data were analyzed with NanoScope Analysis software v.1.40 (Veeco, USA). Scans were acquired at 25° C. at the rates of 1.0 Hz and 256 samples per line resolution. Downstream image processing and analysis were performed using NanoScope software (Bruker). Height images were flattened to compensate for cell curvature, and topographical sections were used to generate two-dimensional reconstructions of surface texture."}}, "note": "Positions of bridges follow the written chain, without caps; N, C: chain ends. Non-standard residues stand in square brackets, D forms with d. Residues, ends and D or L forms follow the SMILES beside them. ξ: configuration not given here. *: point of attachment. Hexanoyl(4ξ-Me) = CCC(C)CCC(=O)*; dOrn = NCCC[C@@H](N)C(=O)O; Orn = NCCC[C@H](N)C(=O)O"}
{"smiles": "CCC(C)CCC(=O)N[C@H](CC(N)=O)C(=O)N[C@H](Cc1ccc(O)cc1)C(=O)N[C@H](Cc1c[nH]c2ccccc12)C(=O)N[C@H](CCCN)C(=O)N[C@@H](CCCN)C(=O)NCC(=O)N[C@H](CCCN)C(=O)N[C@@H](Cc1c[nH]c2ccccc12)C(=O)N[C@@H]1C(=O)N[C@@H]([C@@H](C)CC)C(=O)NCC(=O)N[C@H](CO)C(=O)O[C@@H]1C", "note": "(stereo partly drawn) [Compound 1, 4-Methyl-Hexanoyl-D-Asn-D-Tyr-D-Trp-D-Orn-Orn-Gly-D-Orn-Trp-Thr-Ile-Gly-Ser (cyclized via lactone formation between Thr and the C-terminus)] ({Hexanoyl(4ξ-Me)}-[dN][dY][dW][dOrn][Orn]G[dOrn]WTIG[dS]; ester 9-C)", "values": [{"measurement": "MIC", "setting": "[1]; Saccharomyces cerevisiae", "result": ">64", "unit": "µg/mL"}, {"measurement": "MIC Sc", "setting": "[1]; Table 2, Saccharomyces cerevisiae VL-48", "result": "ND (ND >64 μg/ml)"}, {"measurement": "time of exposure to significant reduction of viable cells", "setting": "E. coli Top10; 10 times the MIC", "result": 30, "unit": "min"}, {"measurement": "time of exposure to slightly reduced cell viability", "setting": "E. coli Top10; 10 times the MIC", "result": 15, "unit": "min"}, {"measurement": "bactericidal against E. coli", "setting": "E. coli Top10; growth kinetics, time-kill assay and lysis assay", "result": "bactericidal"}, {"measurement": "development of resistance", "setting": "[2]", "result": "development of resistance was not observed"}, {"measurement": "cell morphology by AFM", "setting": "E. coli ATCC 25922", "result": "lost their regular rod-like shape and became lumpy and rugged"}]}
